From PMC8632988, “Inhibition of SYK and cSrc kinases can protect bone and cartilage in preclinical models of osteoarthritis and rheumatoid arthritis” (Scientific Reports, 2021)
pIC50: −log10 of the molar value. Where “and” joins values, the source holds several entries; their conditions need not be identical. Equal entries are not always repeated. Where two headings read alike, the source gives them in different places.

Key:
SYK = SYK (Homo sapiens, UniProt P43405); assay: SYK inhibition luminescent assay; format: biochemical; design: 6xHis; made in house; host or cells: Sf9
Description: Luminescent assay was performed at A. N. Bakh Institute of Biochemistry (Moscow, Russia). Recombinant 6xHis-SYK kinase (expressed in Sf9 cells) was obtained as described previously. […] After incubation (20 min) Kinase-Glo reagent (Promega) was added. The luminescence was detected using the Fusion Universal Microplate Analyzer (PerkinElmer USA).

rat primary chondrocytes = assay: Hypertrophic-like changes in IL-1β treated primary chondrocytes; format: cell-based; settings: for Relative fold expression, aggrecan / Relative fold expression, type II collagen: control = 1
Description: The experiment was performed at Atlantic Bone Screen, France. To isolate primary chondrocytes, Sprague Dawley 3 weeks old rats were euthanized and their hind limbs were collected. Knee cartilage shavings were digested with collagenase in serum-free Dulbecco’s Modified Eagle’s Medium (DMEM). Once digested, the cell suspension was centrifuged and resuspended in DMEM containing 10% fetal bovine serum (FBS). Then the cells were plated on tissue culture plastic at a density of 10 000 cells∙cm^−2 and were amplified in monolayer in culture medium (DMEM/FCS-10% supplemented with HEPES (25 mM)) until passage 1 and frozen at − 80 °C. Before study rat’s chondrocytes were seeded and cultured in monolayers in 12-well plates for 24 h. After that the cells were treated for three days with IL-1β (10 ng/mL) and MT-SYK-03; […] and vehicle (DMSO, 0.3% in cell medium) controls were also carried out in triplicate. At the end of the treatment, chondrocytes were lysed, and total RNA was purified using the NucleoSpin RNA II kit (Macherey Nagel). Total RNAs (2 μg) were retro-transcribed using M-MLV RT (Lifetechnologies) and obtained cDNAs (10 ng) were used for qPCR to determine steady-state levels of type II collagen and aggrecan mRNAs (levels of RPL19 and β-actin mRNAs were used as controls). Each reaction was set up as follows: 5 μL of iQ SYBR Green Supermix (Biorad, ref 1,708,882), 0.6 μL of forward primer (5 μM), and 0.6 μL of reverse primer (5 μM), 1.8 μL H2O, and 2 μL of cDNA. All qPCRs (72 qPCRs per marker) were run on a DNA Engine Thermal Cycler Chromo 4 in triplicates and analyzed using REST software.

[1] = tested on: B cells in human whole blood; assay: B-cell activation in human whole blood; format: cell-based; settings: anti-IgD stimulation, 16 h, read-out: IC50, BCR-dependent (anti-IgD) activation of B cells
Description: The whole blood assay was performed at N. N. Blokhin National Medical Research Center of Oncology (NMRCO), Russia and approved by NMRCO ethics committee. Informed consent was obtained from all subjects. Red blood cells were lysed by incubation with NH4Cl buffer (0.8% NH4Cl and 0.1% EDTA in distilled water) for 5 min at 37 °C and were precipitated by centrifugation (1500 rpm). The precipitates were resuspended in RPMI-1640 with 10% human serum and 2 mM L-glutamine, after that the cells were again precipitated by analogous centrifugation and resuspended in RPMI-1640. […] Blood was then stained directly with PE-conjugated anti-CD69 (dilution 1:10) and APC-conjugated anti-CD19 (dilution 1:20) antibodies for 20 min at 4 °C. After that cells were precipitated by centrifugation (1500 rpm, 4 °C) and washed twice with phosphate-buffered saline (PBS). The cells were resuspended in PBS containing 1% BSA and subjected to flow cytometry on BD FACS Canto II (BD Biosciences, USA). The number of active cells was estimated as a ratio of CD69-positive cells bearing a marker of CD19 cells, or as a mean fluorescence intensity (MFI) of CD69 + cells after gating on the CD19-positive cells. For dose–response curve see Fig. S2.

Question: Which results are given for COc1cc(Nc2ncnc(Nc3cc4c(cn3)NC(=O)C(C)(C)O4)n2)cc(OC)c1OC [MT-SYK-03]?
Answer: pIC50 (SYK; read-out: IC50, luminescent assay): 7.64; pIC50 (SYK; span of luminescent and radiometric assays, read-out: IC50 (SYK), as given in Figure 1c): 7.85 and 7.40 to 7.64; Aggrecan gene expression (rat primary chondrocytes; IL-1β 10 ng/mL, three days): increased; Type II collagen gene expression (rat primary chondrocytes; IL-1β 10 ng/mL, three days): increased; Relative fold expression, aggrecan (rat primary chondrocytes; IL-1β + MT-SYK-03 0.4 μM): 0.20; Relative fold expression, type II collagen (rat primary chondrocytes; IL-1β + MT-SYK-03 0.4 μM): 0.12; Relative fold expression, aggrecan (rat primary chondrocytes; IL-1β + MT-SYK-03 2 μM): 0.42; Relative fold expression, type II collagen (rat primary chondrocytes; IL-1β + MT-SYK-03 2 μM): 0.12; Relative fold expression, aggrecan (rat primary chondrocytes; IL-1β + MT-SYK-03 10 μM): 0.46; Relative fold expression, type II collagen (rat primary chondrocytes; IL-1β + MT-SYK-03 10 μM): 0.09; pIC50 [1]: 6.26
